Data taken from US9481899B2, “Methods and compositions for producing hydrocarbons” (priority 2008, dated 2016).

Target: T1, Npun02004178 protein (Nostoc punctiforme, UniProt B2J1M1)
T1 construct: made in house; host or cells: E. coli BL21 (DE3)
T1 sequence (B2J1M1 1-232): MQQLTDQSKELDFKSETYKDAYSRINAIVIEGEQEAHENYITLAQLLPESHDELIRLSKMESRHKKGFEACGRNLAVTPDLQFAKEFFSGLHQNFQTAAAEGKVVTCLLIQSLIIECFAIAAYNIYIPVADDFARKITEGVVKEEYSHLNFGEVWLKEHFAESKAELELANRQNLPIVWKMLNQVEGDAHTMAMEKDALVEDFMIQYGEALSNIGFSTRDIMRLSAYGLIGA
Assay: In-vitro fatty aldehyde decarbonylase assay
Format: biochemical, Nostoc punctiforme PCC73102
Procedure: The genomic DNA encoding N. punctiforme PCC73102 Npun02004178 (SEQ ID NO:5) was cloned into the NdeI and XhoI sites of vector pET-15b under the control of the T7 promoter. The resulting Npun02004178 protein contained an N-terminal His-tag. An E. coli BL21 strain (DE3) (Invitrogen) was transformed with the plasmid by routine chemical transformation techniques. Protein expression was carried out by first inoculating a colony of the E. coli strain in 5 mL of LB media supplemented with 100 mg/L of carbenicillin and shaken overnight at 37° C. to produce a starter culture. This starter cultures was used to inoculate 0.5 L of LB media supplemented with 100 mg/L of carbenicillin. […] Protein concentration was determined using the Bradford assay (Biorad). […]
To test Npun02004178 protein for decarbonylation activity, the following enzyme assays were set-up. […] Samples were analyzed by GC/MS using the following parameters: run time: 13.13 min; column: HP-5-MS Part No. 19091S-433E (length of 30 meters; I.D.: 0.25 mm narrowbore; film: 0.25 ìM); inject: 1 ìl Agilent 6850 inlet; inlet: 300 C splitless; carrier gas: helium; flow: 1.3 mL/min; oven temp: 75° C. hold 5 min, 320 at 40° C./min, 320 hold 2 min; det: Agilent 5975B VL MSD; det. temp: 330° C.; scan: 50-550 M/Z. Heptadecane from Sigma was used as an authentic reference for determining compound retention time and fragmentation pattern. […]

CCCCCCCCCCCCCCCCCC=O [octadecanal]
in-vitro conversion of octadecanal to heptadecane (30 μM Npun02004178, 200 μM octadecanal, spinach ferredoxin, spinach ferredoxin reductase, 1 mM NADPH, 37° C., 2 h): conversion of octadecanal to heptadecane was observed | in-vitro conversion of octadecanal to heptadecane (NADPH, cyanobacterial ferredoxin oxidoreductase and any of the three cyanobacterial ferredoxins): conversion of octadecanal to heptadecane was observed
